US11542249B2, “BTK inhibitor compounds” (Eli Lilly and Company, priority 2017, dated 2023)

Columns and labels:
[1] = system: activated B cells in human whole blood (CD69); assay: Human Whole Blood CD69 in vitro assay (B cell activation, flow cytometry); format: cell-based; conditions: IC50 value ± standard deviation, anti-human-IgD-Dextran stimulation, read-out: HWB CD69 Rel IC50
Method: Human Whole Blood CD69 in Vitro Assay:
The HWB CD69 assay measures activated B cells in human whole blood using a flow cytometer. Compounds are diluted and added to assay plates with a Labcyte ECHO® 555 liquid handler. Compounds are tested in 10 point dose response curves (20 μM-0.001 μM) in 96-well v-bottom plates with a maximum DMSO concentration of 0.2%. Fresh blood from individual healthy volunteer is mixed with HEPES (0.5 ml HEPES added per 10 ml blood) and 100 μl/well is added to compound plates. The plates are sealed and incubated in a 37° C. incubator for 3 h. Anti-human-IgD-Dextran is added to each well to give a final concentration of 100 ng/ml, mixed, and put back into the incubator. After 1 h, the cells are washed with cold FACS buffer and transferred to a deep well plate. The cells are incubated with anti-human CD69-PE (BIOLEGEND®, clone FN50) and anti-human CD19-APC (BIOLEGEND®, clone HIB19) antibodies on ice for 20 min. The cells are washed and incubated in eBioscience™ 1-step Fix/Lyse solution (10×) at RT to lyse the red blood cells and fix the other cells. The white cells are pelleted and washed in FACS buffer and then brought up in read buffer. The suspended cells are transferred to 96-well round bottom plates and read on an IntelliCyt iQue® Screener Plus flow cytometer. From the SSC (Side Scatter Channel) vs FSC (Forward Scatter Channel) graph, the lymphocytes are identified. Lymphocytes are identified with gated on positive CD19 marker for quantify CD69 (a marker of activated B lymphocytes) MFI (mean fluorescent intensity/cell). The signal ratio is converted to percent inhibition using the following equation: % Inhibition=100−[(Test Compound−Median Min)/(Median Max−Median Min)×100].
(§1) The following Table 1 and Table 2 describes the relative IC50 data vs. human BTK, human EGFR, and human whole blood CD69.

[2] = system: type II collagen-induced arthritis (CIA) rat model; assay: Rat In Vivo Collagen-Induced Arthritis Assay; design: species or system Female Lewis rats; conditions: for % inhibition paw thickness AUC vs Vehicle control / % paw thickness AUC (mm) ± SE: CIA rats, 9 days; for arthritis severity in CIA rats: compared to vehicle treated CIA rats
Method: A type II collagen-induced arthritis (CIA) rat model may be used to evaluate the therapeutic effects of compounds. Female Lewis rats (Charles River Charles River Laboratories, Inc.) with a mean body weight of 155-175 g are used for the study. Animals are fed with standard rodent chow and provided water ad libitum. Immunization emulsion is prepared with 2 mg/ml bovine collagen-II mixed with an equal volume of incomplete Freund's adjuvant (IFA). Rats are immunized intradermally with 0.4 ml collagen emulsion in two sites each on the lower lumbar region, above the base of the tail on day 1, and again on day 8. Animals are randomized based on the paw thickness and body weight on day 11 into study groups, with 8 rats in each group. Compounds are prepared in 1% HEC/0.25% P80/0.05% anti-foam in purified water and dosed daily via oral gavage for 9 days. Paw thickness is quantitated daily using a caliper measurement in the right ankle site.
The inhibition by the compounds of the invention is evaluated using Dunnett's post test for multiple comparisons for the CIA rat groups treated with the indicated Example compound, at the indicated dose, as compared to CIA rat groups treated with vehicle, and differences of P<0.05 are considered to be significant. […] Mean sum paw thickness is decreased compared to vehicle treated CIA rats. Mean percent paw thickness inhibition during the treatment period illustrates dose-related improvement.
Table 4 indicates the in vivo activity for exemplified BTK inhibitors in the collagen-induced arthritis model (SE=standard error).

[3] = target: human BTK (Homo sapiens (Human), UniProt Q06187); assay: BTK LANTHASCREEN Eu Kinase Binding Assay; conditions: IC50 value ± standard deviation; full-length His-labeled BTK, kinase tracer 236; read-out: hBTK Rel IC50
Chain of human BTK (Q06187 whole entry): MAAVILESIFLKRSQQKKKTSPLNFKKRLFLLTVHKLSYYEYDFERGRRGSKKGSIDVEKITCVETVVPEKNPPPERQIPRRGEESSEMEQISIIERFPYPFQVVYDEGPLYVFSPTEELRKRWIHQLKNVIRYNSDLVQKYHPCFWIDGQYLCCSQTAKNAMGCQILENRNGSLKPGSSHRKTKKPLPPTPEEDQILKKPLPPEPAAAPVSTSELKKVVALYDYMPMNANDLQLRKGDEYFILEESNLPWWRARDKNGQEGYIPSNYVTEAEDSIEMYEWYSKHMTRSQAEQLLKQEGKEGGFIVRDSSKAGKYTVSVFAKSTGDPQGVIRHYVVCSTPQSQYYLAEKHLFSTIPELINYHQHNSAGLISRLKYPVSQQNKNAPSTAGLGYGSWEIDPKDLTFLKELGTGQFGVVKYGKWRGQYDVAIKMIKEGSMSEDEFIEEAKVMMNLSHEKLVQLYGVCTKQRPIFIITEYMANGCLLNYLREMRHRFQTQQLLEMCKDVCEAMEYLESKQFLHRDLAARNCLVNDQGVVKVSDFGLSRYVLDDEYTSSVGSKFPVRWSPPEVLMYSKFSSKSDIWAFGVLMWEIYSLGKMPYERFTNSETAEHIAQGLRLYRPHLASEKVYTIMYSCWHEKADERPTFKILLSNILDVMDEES
Method: (§2) BTK and EGFR in Vitro Assays:
(§3) The BTK and EGFR biochemical assays utilize LANTHASCREEN® Eu Kinase Binding Assays from Thermo Fisher Scientific, measuring the binding of the kinase with a […] tracer. The assay buffer consists of 50 mM HEPES pH 7.5, 0.01% BRU™-35, 10 mM MgCl2, 1 mM EGTA, and 1 mM DTT. The test compounds are diluted and added to the assay plate with a Labcyte ECHO® 555 liquid handler. The compounds are tested in 10 point dose response curves (100 μM-0.005 μM) with a maximum DMSO concentration of 1%. The assays are performed in 20 μL in low-volume 384-well white proxiplates. For the BTK assay, the concentration of full-length His-labeled BTK in the assay is 5 nM, the Eu-anti-His antibody is 2 nM, and the kinase tracer 236 is 60 nM. For the EGFR assay, the concentration of truncated (amino acids 668-1210) GST-labeled EGFR is 5 nM, the Eu-anti-GST antibody is 2 nM, and the kinase tracer 199 is 10 nM. The components of the assay (compound, enzyme/antibody, tracer) are assembled and incubated for 30 min prior to being read on a Perkin-Elmer EnVision with excitation at 340 nm, tracer emission at 665 nm, and antibody emission at 615 nm. The signal ratio is converted to percent inhibition using the following equation: % Inhibition=100−[(Test Compound−Median Minimum)/(Median Maximum−Median Minimum)×100].
as §1

[4] = Rat Oral Bioavailability; format: in vivo, Sprague-Dawley rats; conditions: Sprague-Dawley, plasma, PO 3 mg/kg vs IV 1 mg/kg, read-out: Rat Oral Bioavailability (% F)
Method: The test compound is administered to Sprague-Dawley rats intravenously (IV) at 1 mg/kg (using vehicles of either: 20% CAPTISOL® in 25 mM sodium phosphate buffer, pH2 quantum satis; or 25% DMA, 15% EtOH, 10% propylene glycol, 25% 2-pyrrolidone, and 25% purified water) and orally (PO) at 3 mg/kg (using a vehicle of 1% hydroxyethyl cellulose, 0.25% polysorbate 80, 0.05% Antifoam 1510-US, and purified water quantum satis). Serial blood samples are collected at 0.08, 0.25, 0.5, 1, 2, 4, 8, and 12 h post dose for IV bolus and at 0.25, 0.5, 1, 2, 4, 8, and 12 h post dose after oral administration. After treatment with an EDTA […], plasma is obtained by centrifugation and stored at −70° C. until analysis by LC-MS/MS. Test article concentration is determined in plasma and uploaded into the Watson LIMS™ system where noncompartmental analysis is used to calculate Area Under the Curve (AUC) for both IV and PO arms. Bioavailability (% F) is calculated via the following equation, %F=(AUCPO×DoseIV)/(AUCIV×DosePO)×100. Table 3 indicates the rat oral bioavailability of select BTK inhibitors.

[5] = target: human EGFR (Homo sapiens (Human), UniProt P00533); assay: EGFR LANTHASCREEN Eu Kinase Binding Assay; conditions: IC50 value ± standard deviation; truncated GST-labeled EGFR, kinase tracer 199; read-out: hEGFR Rel IC50
Chain of human EGFR (P00533 668-1210): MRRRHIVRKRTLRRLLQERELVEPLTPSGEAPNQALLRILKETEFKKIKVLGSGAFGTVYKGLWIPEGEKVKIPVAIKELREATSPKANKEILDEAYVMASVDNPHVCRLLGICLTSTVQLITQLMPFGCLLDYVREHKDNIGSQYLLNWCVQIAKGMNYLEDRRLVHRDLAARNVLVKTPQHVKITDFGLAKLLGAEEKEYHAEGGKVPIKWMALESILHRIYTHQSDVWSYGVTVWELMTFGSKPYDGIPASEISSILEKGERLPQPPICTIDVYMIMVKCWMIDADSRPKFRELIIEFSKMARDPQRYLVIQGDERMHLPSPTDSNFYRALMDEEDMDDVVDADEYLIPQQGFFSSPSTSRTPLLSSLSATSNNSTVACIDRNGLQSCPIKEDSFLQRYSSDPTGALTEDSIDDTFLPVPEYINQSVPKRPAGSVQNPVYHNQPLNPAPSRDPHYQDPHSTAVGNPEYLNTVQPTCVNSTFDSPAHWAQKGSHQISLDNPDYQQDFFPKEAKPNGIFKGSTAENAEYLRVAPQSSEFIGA
Method: as §2, §3

[6] = system: normal rats; assay: In vivo administration to normal rats for four days (tolerability/toxicity)
Text: Compounds of the invention, for instance Example 1, show an advantageous combination of pharmacological properties, such as potency, high oral in vivo availabilty, in vivo efficacy, and a favorable toxicity profile in preclinical testing.

| SMILES | IC50 [1] [nM] | IC50 [3] [nM] | bioavailability [4] [%] | IC50 [5] [nM] | % inhibition paw thickness AUC vs Vehicle control ([2]; 1 mg/kg/d oral) [%] | % paw thickness AUC (mm) ± SE ([2]; 1 mg/kg/d oral) [mm] | % inhibition paw thickness AUC vs Vehicle control ([2]; 3 mg/kg/d oral) [%] | % paw thickness AUC (mm) ± SE ([2]; 3 mg/kg/d oral) [mm] | arthritis severity in CIA rats [2] | % inhibition paw thickness AUC vs Vehicle control ([2]; 0.5 mg/kg/d oral) [%] | % paw thickness AUC (mm) ± SE ([2]; 0.5 mg/kg/d oral) [mm] | tolerability when administered in vivo [6] | toxicity in vivo [6] | % inhibition paw thickness AUC vs Vehicle control ([2]; 0.3 mg/kg/d oral) [%] | % paw thickness AUC (mm) ± SE ([2]; 0.3 mg/kg/d oral) [mm] | % inhibition paw thickness AUC vs Vehicle control ([2]; 10 mg/kg/d oral) [%] | % paw thickness AUC (mm) ± SE ([2]; 10 mg/kg/d oral) [mm] |
| --- | --- | --- | --- | --- | --- | --- | --- | --- | --- | --- | --- | --- | --- | --- | --- | --- | --- |
| C=CC(=O)N1CCC(Nc2cncc(-c3cnc(Oc4cccc(Cl)c4)nc3)c2)CC1 [Example 1, 1-[4-[[5-[2-(3-chlorophenoxy)pyrimidin-5-yl]-3-pyridyl]amino]-1-piperidyl]prop-2-en-1-one] | 393 ± 128 | 25.3 ± 5.42 | 74 | 470 ± 93.6 | 47 | 69.6 ± 2.0 | 81 | 63.4 ± 1.3 | dose-related reduction | 23 | 73.9 ± 2.5 | generally well tolerated | advantageous lack of toxicity | – | – | – | – |
| C=CC(=O)N1CC[C@H](Nc2cncc(-c3cnc(Oc4cccc(OC(F)F)c4)nc3)c2)C1 [Example 5, 1-[(3S)-3-[[5-[2-[3-(difluoromethoxy)phenoxy]pyrimidin-5-yl]-3-pyridyl]amino]pyrrolidin-1-yl]prop-2-en-1-one] | 485 ± 234 | – | 36.6 | – | 34 | 71.68 ± 2.24 | 58 | 67.18 ± 1.07 | – | – | – | – | – | – | – | – | – |
| C=CC(=O)N1CC(Nc2cncc(-c3cnc(Oc4cccc(OC(F)F)c4)nc3)n2)C1 [Example 24, 1-[3-[[6-[2-[3-(difluoromethoxy)phenoxy]pyrimidin-5-yl]pyrazin-2-yl]amino]azetidin-1-yl]prop-2-en-1-one] | 177 ± 41.6 | 8.53 ± 3.24 | 41 | – | 28 | 65.04 ± 2.31 | 49 | 61.43 ± 4.47 | dose-related reduction | – | – | – | – | – | – | 63 | 59.24 ± 1.49 |

The next lines start with results.

| IC50 [1] [nM] | IC50 [3] [nM] | bioavailability [4] [%] | IC50 [5] [nM] | SMILES | % inhibition paw thickness AUC vs Vehicle control ([2]; 1 mg/kg/d oral) [%] | % paw thickness AUC (mm) ± SE ([2]; 1 mg/kg/d oral) [mm] | % inhibition paw thickness AUC vs Vehicle control ([2]; 3 mg/kg/d oral) [%] | % paw thickness AUC (mm) ± SE ([2]; 3 mg/kg/d oral) [mm] | arthritis severity in CIA rats [2] | % inhibition paw thickness AUC vs Vehicle control ([2]; 0.5 mg/kg/d oral) [%] | % paw thickness AUC (mm) ± SE ([2]; 0.5 mg/kg/d oral) [mm] | tolerability when administered in vivo [6] | toxicity in vivo [6] | % inhibition paw thickness AUC vs Vehicle control ([2]; 0.3 mg/kg/d oral) [%] | % paw thickness AUC (mm) ± SE ([2]; 0.3 mg/kg/d oral) [mm] | % inhibition paw thickness AUC vs Vehicle control ([2]; 10 mg/kg/d oral) [%] | % paw thickness AUC (mm) ± SE ([2]; 10 mg/kg/d oral) [mm] |
| --- | --- | --- | --- | --- | --- | --- | --- | --- | --- | --- | --- | --- | --- | --- | --- | --- | --- |
| 664 ± 314 | 33.7 ± 10.8 | 38.4 | 10400 ± 11500 | C=CC(=O)N1CC(Nc2cncc(-c3cnc(Oc4cccc(OC(F)(F)F)c4)nc3)n2)C1 [Example 27, 1-[3-[[6-[2-[3-(trifluoromethoxy)phenoxy]pyrimidin-5-yl]pyrazin-2-yl]amino]azetidin-1-yl]prop-2-en-1-one] | 24 | 73.30 ± 0.95 | 45 | 69.58 ± 1.26 | dose-related reduction | – | – | – | – | – | – | – | – |
| 261 ± 145 | 9.44 ± 2.26 | 44.6 | 22200 ± 19500 | C=CC(=O)N1CC[C@H](Nc2cncc(-c3cnc(Nc4cccc(OC(F)(F)F)c4)nc3)n2)C1 [Example 33, 1-[(3S)-3-[[6-[2-[3-(trifluoromethoxy)anilino]pyrimidin-5-yl]pyrazin-2-yl]amino]pyrrolidin-1-yl]prop-2-en-1-one] | 52 | 68.32 ± 2.30 | 59 | 67.00 ± 1.52 | dose-related reduction | – | – | – | – | 24 | 73.61 ± 2.09 | – | – |
| 419 ± 118 | 9.49 ± 3.21 | 54.1 | 366 ± 87 | C=CC(=O)N1CC(Nc2cncc(-c3cnc(Oc4cccc(Cl)c4)nc3)n2)C1 [Example 31, 1-[3-[[6-[2-(3-chlorophenoxy)pyrimidin-5-yl]pyrazin-2-yl]amino]azetidin-1-yl]prop-2-en-1-one] | 62 | 66.10 ± 1.83 | 81 | 63.70 ± 0.96 | dose-related reduction | – | – | – | – | – | – | 82 | 64.33 ± 1.00 |
